Like-named read-outs stand apart in the source and are kept apart here.
Tests used:
Type in all cases: in vivo
Phytophthora infestans = assay: whole plant or invertebrate; conditions: for pest or weed control at 0.2 ppm: application rate 0.2 ppm a.i.
Sphaerotheca fuliginea = assay: Sphaerotheca test (cucumbers)/preventive
Excerpt: (§1) A synergistic effect of fungicides is always present when the fungicidal activity of the active compound combinations exceeds the total of the activities of the active compounds when applied individually. The expected activity for a given combination of two active compounds can be calculated as follows (cf. Colby, S. R., “Calculating Synergistic and Antagonistic Responses of Herbicide Combinations”, Weeds 1967, 15, 20-22):
(§2) If • X is the efficacy when active compound A is applied at an application rate of m ppm (or g/ha), • Y is the efficacy when active compound B is applied at an application rate of n ppm (or g/ha), • E is the efficacy when the active compounds A and B are applied at application rates of m and n ppm (or g/ha), respectively, and
Sphaerotheca Test (Cucumbers)/Preventive • Solvent: 24.5 parts by weight of acetone • 24.5 parts by weight of dimethylacetamide • Emulsifier: 1 part by weight of alkylaryl polyglycol ether
(§3) To produce a suitable preparation of active compound, 1 part by weight of active compound is mixed with the stated amounts of solvent and emulsifier, and the concentrate is diluted with water to the desired concentration.
(§4) To test for preventive activity, young plants are sprayed with the preparation of active compound at the stated rate of application. After the spray coating has dried on, the plants are inoculated with an aqueous spore suspension of Sphaerotheca fuliginea. The plants are then placed in a greenhouse at approximately 23° C. and a relative atmospheric humidity of approximately 70%.
The test is evaluated 7 days after the inoculation. 0% means an efficacy which corresponds to that of the untreated control, while an efficacy of 100% means that no disease is observed.

Venturia inaequalis = assay: Venturia test (apples)/preventive; conditions: for pest or weed control at 2 ppm: application rate 2 ppm a.i.; for pest or weed control at 4 ppm: application rate 4 ppm a.i.
Excerpt: as §1, §2
Venturia test (apples)/preventive • Solvent: 24.5 parts by weight of acetone • 24.5 parts by weight of dimethylacetamide • Emulsifier: 1 part by weight of alkylaryl polyglycol ether
as §3
To test for preventive activity, young plants are sprayed with the preparation of active compound at the stated rate of application. After the spray coating has dried on, the plants are inoculated with an aqueous conidia suspension of the causal agent of apple scab (Venturia inaequalis) and then remain for 1 day in an incubation cabinet at approximately 20° C. and a relative atmospheric humidity of 100%.
The plants are then placed in a greenhouse at approximately 21° C. and a relative atmospheric humidity of approximately 90%.
The test is evaluated 10 days after the inoculation. 0% means an efficacy which corresponds to that of the untreated control, while an efficacy of 100% means that no disease is observed.

Alternaria solani = assay: Alternaria test (tomatoes)/preventive; conditions: for pest or weed control at 20 ppm: application rate 20 ppm a.i.
Excerpt: as §1, §2
Alternaria Test (Tomatoes)/Preventive • Solvent: 24.5 parts by weight of acetone • 24.5 parts by weight of dimethylacetamide • Emulsifier: 1 part by weight of alkylaryl polyglycol ether
as §3
as §4, with “Alternaria solani.” for “Sphaerotheca fuliginea.”, “an incubation cabinet” for “a greenhouse”, “20°” for “23°”, “100%.” for “approximately 70%.”
The test is evaluated 3 days after the inoculation. 0% means an efficacy which corresponds to that of the untreated control while an efficacy of 100% means that no disease is observed.

[1] = Table 5, application rate 2.5 ppm a.i.
[2] = Table 7, application rate 1 ppm a.i.
[3] = Venturia inaequalis, 240 h, Table 10, read-out: Efficacy in % found
[4] = Table 7, application rate 4 ppm a.i.
[5] = Phytophthora infestans, 72 h, read-out: Efficacy in % found, Table 5, application rate 2.5 ppm a.i.
[6] = Table 3, application rate 1.25 ppm a.i.
[7] = Table 3, application rate 2.5 ppm a.i.
[8] = Phytophthora infestans, 72 h, read-out: Efficacy in % found, Table 4
[9] = Venturia inaequalis, 240 h, Table 11, application rate 0.5 ppm a.i., read-out: Efficacy in % found
[10] = Alternaria solani, 72 h, Table 2, read-out: Efficacy in % found
[11] = Table 6, application rate 2.5 ppm a.i.
[12] = Table 9, application rate 50 ppm a.i.
[13] = Phytophthora infestans, 72 h, read-out: Efficacy in % found, Table 3, application rate 2.5 ppm a.i.
[14] = Table 3, application rate 5 ppm a.i.

Cn1cc(C(=O)Nc2cccc3c2[C@@H]2CC[C@H]3C2=C(Cl)Cl)c(C(F)F)n1 (racemic) [2.29, benzovindiflupyr]
Efficacy in % found (Phytophthora infestans; [1]): 0% | Efficacy in % found (Sphaerotheca fuliginea; Table 7, application rate 0.5 ppm a.i.): 0%

OC(Cc1ccccc1Cl)(Cn1nc[nH]c1=S)C1(Cl)CC1 (stereo not shown) [1.41, prothioconazole]
Efficacy in % found (Sphaerotheca fuliginea; Table 8, application rate 2 ppm a.i.): 19%

CC(C)(C)C(O)(CCc1ccc(Cl)cc1)Cn1cncn1 (stereo not shown) [1.47, tebuconazole]
pest or weed control at 2 ppm (Venturia inaequalis; Venturia inaequalis, 240 h, Table 11, read-out: Efficacy in % found): 11%

Cn1cc(C(=O)Nc2ccc(F)cc2-c2ccc(Cl)c(Cl)c2)c(C(F)F)n1 [2.1, bixafen]
Efficacy in % found (Venturia inaequalis; Table 10, application rate 1 ppm a.i.): 84% | Efficacy in % found (Sphaerotheca fuliginea; [2]): 10%

O=C(Nc1ccccc1-c1ccc(Cl)cc1)c1cccnc1Cl [2.2, boscalid]
pest or weed control at 20 ppm (Venturia inaequalis; Venturia inaequalis, 240 h, Table 11, application rate 20 ppm a.i., read-out: Efficacy in % found): 85% | Efficacy in % found (Sphaerotheca fuliginea; Table 8, application rate 20 ppm a.i.): 62% | Efficacy in % found (Sphaerotheca fuliginea; Table 8, application rate 40 ppm a.i.): 86%

O=C(NCCc1ncc(C(F)(F)F)cc1Cl)c1ccccc1C(F)(F)F [2.6, fluopyram]
pest or weed control at 4 ppm (Venturia inaequalis; [3]): 21% | pest or weed control at 1 ppm (Alternaria solani; Alternaria solani, 72 h, Table 1, application rate 1 ppm a.i., read-out: Efficacy in % found): 48% | Efficacy in % found (Sphaerotheca fuliginea; [4]): 19%

Cn1cc(C(=O)Nc2ccccc2-c2cc(F)c(F)c(F)c2)c(C(F)F)n1 [2.8, fluxapyroxad]
Efficacy in % found (Phytophthora infestans; [1]): 0% | Efficacy in % found (Venturia inaequalis; Table 10, application rate 0.5 ppm a.i.): 25% | Efficacy in % found (Sphaerotheca fuliginea; [2]): 38%

CC(C)C1C2CCC1c1c(NC(=O)c3cn(C)nc3C(F)F)cccc12 (stereo not shown) [2.12, isopyrazam]
Efficacy in % found (Phytophthora infestans; [1]): 0% | Efficacy in % found (Sphaerotheca fuliginea; [2]): 19% | Efficacy in % found (Sphaerotheca fuliginea; Table 7, application rate 2 ppm a.i.): 57%

CC(C)CC(C)c1sccc1NC(=O)c1cn(C)nc1C(F)(F)F (stereo not shown) [2.21, penthiopyrad]
pest or weed control at 2.5 ppm (Phytophthora infestans; [5]): 0% | pest or weed control at 2 ppm (Venturia inaequalis; [3]): 8% | pest or weed control at 0.5 ppm (Alternaria solani; Alternaria solani, 72 h, Table 1, application rate 0.5 ppm a.i., read-out: Efficacy in % found): 39%

COC(c1ccc(Cl)cc1Cl)C(C)NC(=O)c1cn(C)nc1C(F)F (stereo not shown) [2.27, N-[1-(2,4-dichlorophenyl)-1-methoxypropan-2-yl]-3-(difluoromethyl)-1-methyl-1H-pyrazole-4-carboxamide]
pest or weed control at 2.5 ppm (Phytophthora infestans; [5]): 0% | pest or weed control at 10 ppm (Phytophthora infestans; Phytophthora infestans, 72 h, read-out: Efficacy in % found, Table 5, application rate 10 ppm a.i.): 8% | pest or weed control at 2 ppm (Venturia inaequalis; [3]): 31% | pest or weed control at 4 ppm (Venturia inaequalis; [3]): 93% | Efficacy in % found (Sphaerotheca fuliginea; [4]): 81%

CCCCCCCCc1c(CC)nc2ncnn2c1N [3.1, ametoctradin]
Efficacy in % found (Phytophthora infestans; [6]): 15% | Efficacy in % found (Phytophthora infestans; [7]): 22%

Cc1c(Br)c2ccc(F)cc2n1S(=O)(=O)c1ncn(S(=O)(=O)N(C)C)n1 [3.2, amisulbrom]
Efficacy in % found (Phytophthora infestans; Table 4, application rate 1 ppm a.i.): 19%

CO/C=C(/C(=O)OC)c1ccccc1Oc1cc(Oc2ccccc2C#N)ncn1 [3.3, azoxystrobin]
Efficacy in % found (Venturia inaequalis; Table 11, application rate 0.25 ppm a.i.): 38%

Cc1ccc(-c2c(Cl)nc(C#N)n2S(=O)(=O)N(C)C)cc1 [3.4, cyazofamid]
pest or weed control at 0.2 ppm (Phytophthora infestans; [8]): 8%

CSC1=N[C@@](C)(c2ccccc2)C(=O)N1Nc1ccccc1 [3.10, fenamidone]
pest or weed control at 0.5 ppm (Phytophthora infestans; Phytophthora infestans, 72 h, read-out: Efficacy in % found, Table 4, application rate 0.5 ppm a.i.): 3%

CO/N=C(/C1=NOCCO1)c1ccccc1Oc1ncnc(Oc2ccccc2Cl)c1F [3.12, fluoxastrobin]
pest or weed control at 0.5 ppm (Venturia inaequalis; [9]): 44%

COC(=O)N(OC)c1ccccc1COc1ccn(-c2ccc(Cl)cc2)n1 [3.17, pyraclostrobin]
pest or weed control at 0.5 ppm (Venturia inaequalis; [9]): 19%

CON=C(C(=O)OC)c1ccccc1CON=C(C)c1cccc(C(F)(F)F)c1 [3.22, trifloxystrobin]
pest or weed control at 0.5 ppm (Venturia inaequalis; [9]): 77%

N#Cc1c(Cl)c(Cl)c(Cl)c(C#N)c1Cl [5.4, chlorothalonil]
pest or weed control at 20 ppm (Venturia inaequalis; Venturia inaequalis, 240 h, Table 12, application rate 20 ppm a.i., read-out: Efficacy in % found): 14% | pest or weed control at 20 ppm (Alternaria solani; [10]): 5%

[Cu+2].[OH-].[OH-] [5.5, copper hydroxide]
Efficacy in % found (Phytophthora infestans; [11]): 18% | Efficacy in % found (Venturia inaequalis; Table 13, application rate 20 ppm a.i.): 25% | Efficacy in % found (Sphaerotheca fuliginea; Table 9, application rate 10 ppm a.i.): 29%

[Cl-].[Cu+2].[Cu+2].[OH-].[OH-].[OH-] [5.8, copper oxychloride]
Efficacy in % found (Phytophthora infestans; [11]): 0% | Efficacy in % found (Venturia inaequalis; Table 13, application rate 50 ppm a.i.): 8% | Efficacy in % found (Sphaerotheca fuliginea; [12]): 10%

O=C1c2ccccc2C(=O)N1SC(Cl)(Cl)Cl [5.16, folpet]
pest or weed control at 10 ppm (Alternaria solani; Alternaria solani, 72 h, Table 2, application rate 10 ppm a.i., read-out: Efficacy in % found): 0%

Cc1cc(C)nc(Nc2ccccc2)n1 [7.7, pyrimethanil]
pest or weed control at 20 ppm (Alternaria solani; [10]): 32%

CC(C)[C@H](NC(=O)O)C(=O)N[C@H](C)c1nc2ccc(F)cc2s1 [9.1, benthiavalicarb]
Efficacy in % found (Phytophthora infestans; Table 4, application rate 0.5 ppm a.i.): 52%

COc1ccc(C(=CC(=O)N2CCOCC2)c2ccc(Cl)cc2)cc1OC [9.2, dimethomorph]
pest or weed control at 1 ppm (Phytophthora infestans; Phytophthora infestans, 72 h, read-out: Efficacy in % found, Table 4, application rate 1 ppm a.i.): 20%

Cc1ccc(C(C)NC(=O)[C@@H](NC(=O)OC(C)C)C(C)C)cc1 (stereo partly shown) [9.4, iprovalicarb]
Efficacy in % found (Phytophthora infestans; Table 4, application rate 2 ppm a.i.): 9%

O=[N+]([O-])c1cc(C(F)(F)F)c(Cl)c([N+](=O)[O-])c1Nc1ncc(C(F)(F)F)cc1Cl [14.4, fluazinam]
pest or weed control at 2.5 ppm (Phytophthora infestans; [13]): 0%

CCNC(=O)NC(=O)/C(C#N)=N/OC [15.9, cymoxanil]
pest or weed control at 2.5 ppm (Phytophthora infestans; [13]): 0% | pest or weed control at 5 ppm (Phytophthora infestans; Phytophthora infestans, 72 h, read-out: Efficacy in % found, Table 3, application rate 5 ppm a.i.): 0%

OP(O)O [15.41, phosphorous acid]
Efficacy in % found (Phytophthora infestans; [7]): 0% | Efficacy in % found (Phytophthora infestans; [14]): 13%

Cn1c(=O)c2sc3c(=O)n(C)c(=O)c3sc2c1=O [15.60, 2,6-dimethyl-1H,5H-[1,4]dithiino[2,3-c:5,6-c′]dipyrrole-1,3,5,7(2H,6H)-tetrone]
pest or weed control at 50 ppm (Venturia inaequalis; Venturia inaequalis, 240 h, Table 12, application rate 50 ppm a.i., read-out: Efficacy in % found): 24% | pest or weed control at 50 ppm (Alternaria solani; Alternaria solani, 72 h, Table 2, application rate 50 ppm a.i., read-out: Efficacy in % found): 32%

CCCCCOC(=O)Nc1cccc(CON=C(c2ccccc2)c2nnnn2C)n1 [15.90, pentyl {6-[({[(1-methyl-1H-tetrazol-5-yl)(phenyl)methylidene]amino}oxy)methyl]pyridin-2-yl}carbamate]
pest or weed control at 0.2 ppm (Phytophthora infestans; [8]): 10%

fosetyl-aluminium [15.24]
Efficacy in % found (Phytophthora infestans; [7]): 0% | Efficacy in % found (Phytophthora infestans; [14]): 0%

metalaxyl-M (mefenoxam) [12.10]
Efficacy in % found (Phytophthora infestans; [6]): 10% | Efficacy in % found (Phytophthora infestans; [7]): 36%

metiram [5.25]
Efficacy in % found (Phytophthora infestans; [11]): 15% | Efficacy in % found (Venturia inaequalis; Table 13, application rate 100 ppm a.i.): 55% | Efficacy in % found (Sphaerotheca fuliginea; [12]): 29%

propamocarb hydrochloride [10.10]
Efficacy in % found (Phytophthora infestans; [11]): 0% | Efficacy in % found (Sphaerotheca fuliginea; Table 9, application rate 200 ppm a.i.): 0% | Efficacy in % found (Sphaerotheca fuliginea; Table 9, application rate 400 ppm a.i.): 0%

propineb [5.29]
Efficacy in % found (Alternaria solani; Table 2, application rate 5 ppm a.i.): 0%

— patent US12102087B2 (priority 2012, dated 2024)
